Results from PubChem BioAssay (NCI).
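48-hour exposure; five concentrations; linearly interpolated endpoints. Abbreviation: GI50, concentration required for 50% inhibition of growth. The concentration for full growth arrest is given as TGI.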

Legend:
Assay in all cases: DTP human tumour cell line panel, 48 h
A549 NSCLC = tested on: A549 NSCLC
ACHN renal = tested on: ACHN renal
CCRF-CEM leukemia = tested on: CCRF-CEM leukemia
HCT-15 colon = tested on: HCT-15 colon
K-562 leukemia = tested on: K-562 leukemia
NCI-H23 lung = tested on: NCI-H23 lung
OVCAR-8 ovarian = tested on: OVCAR-8 ovarian
SF-268 CNS = tested on: SF-268 CNS
U251 CNS = tested on: U251 CNS
HS 578T breast = tested on: HS 578T breast

Row | SMILES | TGI (A549 NSCLC) [µM] | TGI (ACHN renal) [µM] | TGI (CCRF-CEM leukemia) [µM] | TGI (HCT-15 colon) [µM] | TGI (K-562 leukemia) [µM] | TGI (NCI-H23 lung) [µM] | TGI (OVCAR-8 ovarian) [µM] | TGI (SF-268 CNS) [µM] | TGI (U251 CNS) [µM] | GI50 (A549 NSCLC) [µM] | GI50 (ACHN renal) [µM] | GI50 (CCRF-CEM leukemia) [µM] | GI50 (K-562 leukemia) [µM] | GI50 (NCI-H23 lung) [µM] | GI50 (OVCAR-8 ovarian) [µM] | GI50 (SF-268 CNS) [µM] | GI50 (U251 CNS) [µM] | TGI (HS 578T breast) [µM] | GI50 (HCT-15 colon) [µM] | GI50 (HS 578T breast) [µM]
1 | COC(=O)C1CCC(N2C(=O)CCC2C(=O)OC)=N1 (stereo not given) | > 100 | > 100 | > 100 | > 100 | > 100 | > 100 | > 100 | > 100 | > 100 | – | – | – | – | – | – | – | – | – | – | –
2 | CC(=O)Oc1cc(OC(C)=O)c2cc3c(cc2c1OC(C)=O)C(=O)C1(CCCC1)C3=O | 40.4 | 31.5 | – | 39.3 | 49.3 | 34.1 | 31.6 | 66.5 | 32.3 | – | – | – | – | – | – | – | – | – | – | –
3 | CCCCCCCCCCCCCCCCCCOCC1(COP(=O)([O-])OCC[N+](C)(C)C)CCCO1 (stereo not given) | 20.6 | 19.4 | 11.6 | – | 31.7 | 31.9 | 26.5 | 18.2 | 7.03 | – | – | – | – | – | – | – | – | – | – | –
4 | O=C(O)C1=C(Cl)c2ccccc2S1(=O)=O | > 100 | – | > 100 | > 100 | > 100 | > 100 | > 100 | > 100 | – | – | – | – | – | – | – | – | – | – | – | –
5 | CC(=O)[CH-]C(=O)c1ccccc1.CC(=O)[CH-]C(=O)c1ccccc1.CC12CC3(C)CC(C)(C1)CC([O-])(C2)C3.CC[O-].[Ti+4] | > 100 | > 100 | > 100 | – | > 100 | 34.4 | > 100 | 45.4 | 27.9 | 29.5 | 38.7 | 28.7 | 34.4 | 18.1 | 27.7 | 18.6 | 13.5 | – | – | –
6 | CC(C)c1ccc(O)c(O)c(=O)c1 (tested in a mixture with another compound) | > 100 | 13 | – | > 100 | > 100 | > 26.3 | > 100 | > 61.5 | 4.98 | – | – | – | – | – | – | – | – | 69.7 | – | –
7 | Cn1c(=O)c2[nH]cnc2n(CC(=O)O)c1=O | > 100 | > 100 | > 100 | > 100 | > 100 | > 100 | > 100 | > 100 | > 100 | – | – | – | – | – | – | – | – | – | – | –
8 | O/N=C1/C(=C/c2ccccc2)CCCC1C(NO)c1ccccc1 (stereo not given) | > 100 | > 100 | – | > 100 | > 100 | > 100 | > 100 | > 100 | – | – | – | – | – | – | – | – | – | – | – | –
9 | CN(Cc1ccccc1)c1nc(=[N+](C)C)ss1 | > 100 | > 100 | > 100 | > 100 | > 100 | > 100 | > 100 | > 100 | > 100 | – | – | – | – | – | – | – | – | – | – | –
10 | NC(=O)N/N=C1/CCCC/C1=C\c1ccccc1 | > 100 | > 100 | > 100 | > 100 | > 100 | > 100 | > 100 | > 100 | > 100 | – | – | – | – | – | – | – | – | – | – | –
11 | Cc1cc(Cl)ccc1Nc1nc(C(F)(F)F)ccc1C(=O)N/N=C/c1ccc(N(C)C)cc1 | > 100 | > 100 | – | > 100 | > 100 | > 100 | > 100 | > 100 | > 100 | 3.86 | 2.57 | – | 1.93 | 3.92 | 2.83 | 1.37 | 1.42 | > 100 | 0.481 | 2.7
12 | NC(=O)C12CCC1C1CCCCC12N1CCOCC1 (stereo not given) | > 100 | > 100 | > 100 | > 100 | > 100 | > 100 | > 100 | > 100 | > 100 | – | – | – | – | – | – | – | – | – | – | –
13 | Cc1cccc(NC(=O)Cc2nc3ccccc3s2)c1C | > 100 | > 100 | > 100 | > 100 | > 100 | > 100 | > 100 | > 100 | – | – | – | – | – | – | – | – | – | – | – | –
14 | N#CNc1nc(C(=O)Nc2ccc(Cl)cc2)cc(-c2ccccc2)n1 | > 100 | > 100 | – | > 100 | > 100 | > 100 | > 100 | > 100 | > 100 | – | – | – | – | – | – | – | – | – | – | –
15 | CC(C)(C)[Si](Nc1ccccc1)(c1ccccc1)c1ccccc1 | 28.2 | 30.1 | 39.7 | 28.4 | 25.1 | 32.8 | 34 | 28 | 26.8 | – | – | – | – | – | – | – | – | – | – | –
16 | CN(C)NC(=S)NC12CC3CC(CC(C3)C1)C2 | > 100 | > 100 | > 100 | > 100 | > 100 | > 100 | > 100 | > 100 | > 100 | – | – | – | – | – | – | – | – | – | – | –
17 | CC1(C)CC(O)CCCCCCOc2c(CN)cccc2NC(=O)c2nc(cnc2N)-c2ccc(cc2)S1(=O)=O (stereo not given) | – | 2.04 | 5.53 | 2.56 | 2.69 | – | 5.87 | 3.44 | 1.86 | – | 0.0214 | < 0.01 | 0.0538 | – | 2.14 | 1.27 | 0.382 | – | 0.263 | –
18 | C=C(CN(CCN1CCOCC1)CC(=C)c1ccc(C(=O)Nc2ccccc2N)cc1)c1ccc(C(=O)Nc2ccccc2N)cc1 | 24.9 | 13.3 | – | 43.9 | > 50 | 9.11 | 29.5 | 25 | 12.4 | 9.38 | 6.04 | – | 28.1 | 2.49 | 1.79 | 8.17 | 5.78 | 42.8 | 10.5 | 5.55
19 | CCCCCC/C=C/CCCCCCCc1cccc(O)c1C(=O)O | > 100 | > 100 | > 100 | > 100 | > 100 | > 100 | > 100 | > 100 | 88.2 | – | – | – | – | – | – | – | – | – | – | –
20 | O=C(Cc1nc2ccccc2s1)C(=O)Nc1ccc(Cl)cc1Cl | > 100 | > 100 | – | > 100 | > 100 | > 100 | > 100 | > 100 | > 100 | – | – | – | – | – | – | – | – | – | – | –
21 | C[n+]1ccc2[nH]c3ccccc3c2c1 | > 100 | > 100 | > 100 | > 100 | > 100 | > 100 | > 100 | > 100 | > 100 | – | – | – | – | – | – | – | – | – | – | –
